Assay results as given in PubChem BioAssay AID256 (DTP/NCI, 2004).
Where “and” joins values, the source holds several entries; their conditions need not be identical. Equal entries are not always repeated. Toxic doses and inconclusive results are not listed. How the source made its calls: active means survival T/C of 150% or more; inactive means T/C below 125% in these data. Positions of bridges follow the written chain, without caps; N, C: chain ends. Non-standard residues stand in square brackets, D forms with d. Residues, ends and D or L forms follow the SMILES beside them. Chains are numbered I, II in the order given. *: point of attachment. Quinoxaline2carbonyl = O=C(c1cnc2ccccc2n1)*; NMeV = CN[CH](C(=O)O)C(C)C; NMeC = CN[CH](CS)C(=O)O

Test system: CD2F1 mice, L1210 leukemia ip, survival T/C
Assay: NCI In Vivo Anticancer Drug Screen. Data for tumor model L1210 Leukemia (intraperitoneal) in CD2F1 (CDF1) mice
Details: higher = longer survival
In short: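 Transplantable tumor in mice; compound-treated vs vehicle-treated groups. Read-out = treated/control ratio of the measured endpoint.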

[1] = endpoint: mean survival time, dose: 25.0 mg/kg/injection, schedule: Q01DX009 (ip), vehicle: saline with Tween-80
[2] = endpoint: mean survival time, dose: 50.0 mg/kg/injection, schedule: Q01DX009 (ip), vehicle: saline with Tween-80
[3] = endpoint: mean survival time, dose: 100.0 mg/kg/injection, schedule: Q04DX003 (ip), vehicle: saline with Tween-80
[4] = endpoint: mean survival time, dose: 200.0 mg/kg/injection, schedule: Q04DX003 (ip), vehicle: saline with Tween-80
[5] = endpoint: mean survival time, dose: 400.0 mg/kg/injection, schedule: Q04DX003 (ip), vehicle: saline with Tween-80
[6] = endpoint: mean survival time, dose: 100.0 mg/kg/injection, schedule: Q01DX009 (ip), vehicle: saline
[7] = endpoint: mean survival time, dose: 200.0 mg/kg/injection, schedule: Q01DX009 (ip), vehicle: saline

Measured: T/C

Nc1nc(Br)nc2c1ncn2C1CC(O)C(CO)O1 (centres undefined)
inactive: endpoint: median survival time, dose: 3.8 mg/kg/injection, schedule: Q03HX009 (ip), vehicle: saline 120 % of control | endpoint: median survival time, dose: 53.0 mg/kg/injection, schedule: Q03DX003 (ip), vehicle: saline 121 % of control | endpoint: median survival time, dose: 80.0 mg/kg/injection, schedule: Q03DX003 (ip), vehicle: saline 118 % of control | endpoint: median survival time, dose: 120.0 mg/kg/injection, schedule: Q03DX003 (ip), vehicle: saline 122 % of control
active: endpoint: median survival time, dose: 10.0 mg/kg/injection, schedule: Q03HX024 (ip), vehicle: saline 152 % of control | endpoint: median survival time, dose: 15.0 mg/kg/injection, schedule: Q03HX009 (ip), vehicle: water 163 % of control | endpoint: median survival time, dose: 20.0 mg/kg/injection, schedule: Q03HX024 (ip), vehicle: saline 164 % of control and 174 % of control | endpoint: median survival time, dose: 30.0 mg/kg/injection, schedule: Q03HX009 (ip), vehicle: suspension in saline 195 % of control | endpoint: median survival time, dose: 30.0 mg/kg/injection, schedule: Q03HX009 (ip), vehicle: water 237 % of control | endpoint: median survival time, dose: 30.0 mg/kg/injection, schedule: Q03HX024 (ip), vehicle: saline 329 % of control | endpoint: median survival time, dose: 40.0 mg/kg/injection, schedule: Q03HX024 (ip), vehicle: saline 728 % of control | endpoint: median survival time, dose: 60.0 mg/kg/injection, schedule: Q03HX009 (ip), vehicle: suspension in saline 243 % of control | endpoint: median survival time, dose: 60.0 mg/kg/injection, schedule: Q03HX009 (ip), vehicle: water 221 % of control | endpoint: median survival time, dose: 120.0 mg/kg/injection, schedule: Q03HX009 (ip), vehicle: suspension in saline 193 % of control

NC(N)=NNc1ccccc1
inactive: endpoint: mean survival time, dose: 6.25 mg/kg/injection, schedule: Q01DX009 (ip), vehicle: saline 100 % of control | endpoint: mean survival time, dose: 12.5 mg/kg/injection, schedule: Q01DX009 (ip), vehicle: saline 100 % of control | endpoint: mean survival time, dose: 25.0 mg/kg/injection, schedule: Q01DX009 (ip), vehicle: saline 96 % of control

O=C(Nc1cccc(C(F)(F)F)c1)c1cccc(C(=O)Nc2cccc(C(F)(F)F)c2)c1
inactive: endpoint: mean survival time, dose: 12.5 mg/kg/injection, schedule: Q01DX009 (ip), vehicle: saline with Tween-80 92 % of control | [1] 89 % of control | [2] 89 % of control

CC(=O)Oc1ccc2c3c(ccc2c1)C1CCC(=O)C1(C)CC3 (centres undefined)
inactive: [3] 97 % of control | [4] 92 % of control | [5] 97 % of control

C[N+](C)(C)CC(=O)N/N=C\c1c(O)ccc2ccccc12
inactive: [3] 97 % of control

COc1cc2c(C)nc3c4cc5c(cc4ccc3c2cc1OC)OCO5
inactive: endpoint: mean survival time, dose: 3.13 mg/kg/injection, schedule: Q01DX009 (ip), vehicle: water 97 % of control | endpoint: mean survival time, dose: 6.25 mg/kg/injection, schedule: Q01DX009 (ip), vehicle: water 92 % of control | endpoint: mean survival time, dose: 12.5 mg/kg/injection, schedule: Q01DX009 (ip), vehicle: water 90 % of control | endpoint: mean survival time, dose: 25.0 mg/kg/injection, schedule: Q01DX009 (ip), vehicle: water 95 % of control | endpoint: mean survival time, dose: 50.0 mg/kg/injection, schedule: Q01DX009 (ip), vehicle: water 93 % of control

Nc1nc2c(c(=O)[nH]1)N=C(CCc1ccccc1)CO2
inactive: endpoint: mean survival time, dose: 25.0 mg/kg/injection, schedule: Q01DX009 (ip), vehicle: other 91 % of control | endpoint: mean survival time, dose: 50.0 mg/kg/injection, schedule: Q01DX009 (ip), vehicle: other 93 % of control | endpoint: mean survival time, dose: 100.0 mg/kg/injection, schedule: Q01DX009 (ip), vehicle: other 87 % of control | endpoint: mean survival time, dose: 200.0 mg/kg/injection, schedule: Q01DX009 (ip), vehicle: other 87 % of control

CCCCNCC(=O)O[C@]1(CC)C(=O)OCc2c1cc1n(c2=O)Cc2cc3ccccc3nc2-1
active: endpoint: median survival time, dose: 7.5 mg/kg/injection, schedule: Q04HX004 (iv), vehicle: dextrose 150 % of control | endpoint: median survival time, dose: 7.5 mg/kg/injection, schedule: Q04HX004 (iv), vehicle: other 158 % of control | endpoint: median survival time, dose: 15.0 mg/kg/injection, schedule: Q04HX004 (iv), vehicle: dextrose 172 % of control | endpoint: median survival time, dose: 15.0 mg/kg/injection, schedule: Q04HX004 (iv), vehicle: other 186 % of control | endpoint: median survival time, dose: 30.0 mg/kg/injection, schedule: Q04DX002 (ip), vehicle: saline 158 % of control | endpoint: median survival time, dose: 30.0 mg/kg/injection, schedule: Q04HX004 (iv), vehicle: dextrose 218 % of control | endpoint: median survival time, dose: 30.0 mg/kg/injection, schedule: Q04HX004 (iv), vehicle: other 235 % of control | endpoint: median survival time, dose: 40.0 mg/kg/injection, schedule: Q04HX004 (iv), vehicle: other 247 % of control | endpoint: median survival time, dose: 60.0 mg/kg/injection, schedule: Q04DX002 (ip), vehicle: saline 195 % of control and 212 % of control
inactive: endpoint: median survival time, dose: 7.5 mg/kg/injection, schedule: Q04DX002 (ip), vehicle: saline 109 % of control | endpoint: median survival time, dose: 15.0 mg/kg/injection, schedule: Q04DX002 (ip), vehicle: saline 117 % of control and 124 % of control

CCOC(=O)C1CN(Cc2ccccc2)CCC1=O (centres undefined)
inactive: [6] 100 % of control | [7] 103 % of control

CC1NC(=O)C(NC(=O)c2cnc3ccccc3n2)COC(=O)C(C(C)C)N(C)C(=O)C2CSSCC(C(=O)N(C)C(C(C)C)C(=O)OCC(NC(=O)c3cnc4ccccc4n3)C(=O)NC(C)C(=O)N2C)N(C)C1=O (centres undefined) (I: Quinoxaline2carbonyl-SA[NMeC][NMeV] / II: Quinoxaline2carbonyl-SA[NMeC][NMeV]; ester I:1-II:C, I:C-II:1; disulfide I:3-II:3; configuration not given here)
inactive: endpoint: mean survival time, dose: 11.2 micrograms/kg/injection, schedule: Q01DX009 (ip), vehicle: Klucel (hydroxypropylcellulose) (HPC) 101 % of control | endpoint: mean survival time, dose: 22.5 micrograms/kg/injection, schedule: Q01DX009 (ip), vehicle: Klucel (hydroxypropylcellulose) (HPC) 103 % of control | endpoint: mean survival time, dose: 45.0 micrograms/kg/injection, schedule: Q01DX009 (ip), vehicle: Klucel (hydroxypropylcellulose) (HPC) 105 % of control | endpoint: mean survival time, dose: 50.0 micrograms/kg/injection, schedule: Q01DX009 (ip), vehicle: other 114 % of control | endpoint: mean survival time, dose: 90.0 micrograms/kg/injection, schedule: Q01DX009 (ip), vehicle: Klucel (hydroxypropylcellulose) (HPC) 105 % of control | endpoint: mean survival time, dose: 180.0 micrograms/kg/injection, schedule: Q01DX009 (ip), vehicle: Klucel (hydroxypropylcellulose) (HPC) 100 % of control | endpoint: mean survival time, dose: 200.0 micrograms/kg/injection, schedule: Q01DX009 (ip), vehicle: other 115 % of control

CCOC(=O)NC1CCc2cc(OC)c(OC)c(OC)c2-c2ccc(OC)c(=O)cc21 (centres undefined)
inactive: endpoint: median survival time, dose: 8.33 mg/kg/injection, schedule: Q01DX005 (ip), vehicle: Klucel (hydroxypropylcellulose) (HPC) 107 % of control
active: endpoint: median survival time, dose: 2.5 mg/kg/injection, schedule: Q01DX005 (ip), vehicle: Klucel (hydroxypropylcellulose) (HPC) 171 % of control | endpoint: median survival time, dose: 3.0 mg/kg/injection, schedule: Q01DX005 (ip), vehicle: Klucel (hydroxypropylcellulose) (HPC) 164 % of control | endpoint: median survival time, dose: 5.0 mg/kg/injection, schedule: Q01DX005 (ip), vehicle: Klucel (hydroxypropylcellulose) (HPC) 179 % of control and 187 % of control

COc1ccc(S(=O)(=O)F)cc1NC(=O)c1ccc2ccccc2c1O
inactive: [6] 112 % of control | [7] 108 % of control | endpoint: mean survival time, dose: 400.0 mg/kg/injection, schedule: Q01DX009 (ip), vehicle: saline 113 % of control

CC(=O)Cc1ccc(C)cc1
inactive: [3] 97 % of control | [4] 93 % of control | [5] 104 % of control

CCCC/C=C\C(=O)O
inactive: [2] 102 % of control | endpoint: mean survival time, dose: 100.0 mg/kg/injection, schedule: Q01DX009 (ip), vehicle: saline with Tween-80 102 % of control | endpoint: mean survival time, dose: 200.0 mg/kg/injection, schedule: Q01DX009 (ip), vehicle: saline with Tween-80 98 % of control

O/N=C/c1ccccc1
inactive: endpoint: mean survival time, dose: 11.0 mg/kg/injection, schedule: Q01DX009 (ip), vehicle: saline with Tween-80 108 % of control | endpoint: mean survival time, dose: 16.5 mg/kg/injection, schedule: Q01DX009 (ip), vehicle: saline with Tween-80 94 % of control | endpoint: mean survival time, dose: 25.0 mg/kg/injection, schedule: Q01DX001 (ip), vehicle: saline 97 % of control | [1] 97 % of control | endpoint: mean survival time, dose: 37.5 mg/kg/injection, schedule: Q01DX009 (ip), vehicle: saline with Tween-80 95 % of control | endpoint: mean survival time, dose: 50.0 mg/kg/injection, schedule: Q01DX001 (ip), vehicle: saline 97 % of control | endpoint: mean survival time, dose: 100.0 mg/kg/injection, schedule: Q01DX001 (ip), vehicle: saline with Tween-80 97 % of control | endpoint: mean survival time, dose: 100.0 mg/kg/injection, schedule: Q01DX001 (ip), vehicle: saline 101 % of control

COC(=O)c1ccccc1N1C(=O)C=CC1=O
inactive: endpoint: mean survival time, dose: 12.5 mg/kg/injection, schedule: Q04DX003 (ip), vehicle: saline with Tween-80 98 % of control | endpoint: mean survival time, dose: 25.0 mg/kg/injection, schedule: Q04DX003 (ip), vehicle: saline with Tween-80 89 % of control

CC1(C)N=C(N)N=C(N)N1c1cccc(CC(=O)Nc2ccc(S(=O)(=O)F)cc2)c1
inactive: endpoint: mean survival time, dose: 50.0 mg/kg/injection, schedule: Q01DX009 (ip), vehicle: saline 120 % of control | [6] 117 % of control | endpoint: mean survival time, dose: 300.0 mg/kg/injection, schedule: Q01DX009 (ip), vehicle: saline 120 % of control
